Test results as given in US10359701B2, “Material for forming underlayer film for lithography, composition for forming underlayer film for lithography, underlayer film for lithography and pattern forming method” (Mitsubishi Gas Chemical Company, Inc., priority 2015, dated 2019).

Legend:
[1] = Thermogravimetric measurement (TG) of the synthesized compound; assay type: physicochemical
[2] = Solubility: amount of compound dissolved in PGMEA at 23° C.
Description: The amount of the compound dissolved in propylene glycol monomethyl ether acetate (PGMEA) was measured at 23° C., and the results were evaluated according to the following criteria.
Evaluation A: 10% by mass or more
Evaluation B: less than 10% by mass

N#COc1ccc(C(c2ccccc2)c2ccc(OC#N)cc2)cc1 [B-CN, bis(4-cyanatophenyl)phenylmethane]
20% thermal weight loss temperature [1]: ≥ 400 °C
solubility in PGMEA [2]: ≥ 10 % by mass
solubility in PGMEA (Evaluation) [2]: A (10% by mass or more)

N#COc1ccc(-c2ccc(OC#N)c(C(c3ccc(-c4ccccc4)cc3)c3cc(-c4ccc(OC#N)cc4)ccc3OC#N)c2)cc1 [BiF-CN, bis(4,4′-cyanatobiphenyl) biphenylmethane]
20% thermal weight loss temperature [1]: ≥ 400 °C
solubility in PGMEA [2]: ≥ 10 % by mass
solubility in PGMEA (Evaluation) [2]: A (10% by mass or more)
